Values after ≈ are worked out from the molar mass of the structure shown. Read-outs that look alike come from different tables or passages of the source.
Columns and labels:
[1] = tested on: dextran sulfate sodium (DSS) induced colitis; experiment: Mouse DSS colitis model; assay type: in vivo, mice; conditions: mouse, in vivo
Staph. epidermidis = experiment: Broth microdilution MIC; assay type: cell-based; conditions: Staphylococcus epidermidis
Klebsiella oxtoca = experiment: Broth microdilution MIC; assay type: cell-based
Proteus vulgaris = experiment: Broth microdilution MIC; assay type: cell-based
Providencia stuartii = experiment: Broth microdilution MIC; assay type: cell-based
[2] = tested on: stationary phase cultures of MSSA and MRSA; experiment: Time-kill against stationary phase cultures of MSSA and MRSA; assay type: cell-based, Staph. aureus; conditions: up to 10× the MIC; data not shown
Entero. faecalis = experiment: Broth microdilution MIC; assay type: cell-based; conditions: Enterococcus faecalis
Entero. faecium (VRE) = experiment: Broth microdilution MIC; assay type: cell-based; conditions: Enterococcus faecium
Staph. aureus (MRSA) = experiment: Broth microdilution MIC; assay type: cell-based; conditions: Staphylococcus aureus
Staph. saprophyticus = experiment: Broth microdilution MIC; assay type: cell-based; conditions: Staphylococcus saprophyticus
Staph. spp. coagulase- = experiment: Broth microdilution MIC; assay type: cell-based
Strept. agalactiae = experiment: Broth microdilution MIC; assay type: cell-based; conditions: Streptococcus agalactiae
Strept. pneumoniae = experiment: Broth microdilution MIC; assay type: cell-based; conditions: Streptococcus pneumoniae
Strept. pyogenes = experiment: Broth microdilution MIC; assay type: cell-based; conditions: Streptococcus pyogenes
Strept. viridians = experiment: Broth microdilution MIC; assay type: cell-based
Citrobacter fruendi = experiment: Broth microdilution MIC; assay type: cell-based
Citrobacter koseri = experiment: Broth microdilution MIC; assay type: cell-based
Enterobacter cloacae = experiment: Broth microdilution MIC; assay type: cell-based
Escherichia coli = experiment: Broth microdilution MIC; assay type: cell-based
Klebsiella pneumoniae = experiment: Broth microdilution MIC; assay type: cell-based
Morganella morganii = experiment: Broth microdilution MIC; assay type: cell-based
Proteus mirabilis = experiment: Broth microdilution MIC; assay type: cell-based
Acinetobacter spp. = experiment: Broth microdilution MIC; assay type: cell-based; conditions: 2-3 isolates/organism
Pseud. aeruginosa = experiment: Broth microdilution MIC; assay type: cell-based; conditions: Pseudomonas aeruginosa
Serratia marcescens = experiment: Broth microdilution MIC; assay type: cell-based
[3] = tested on: Stenotrophomonas maltophilia; experiment: Broth microdilution MIC; assay type: cell-based
Haemophilus influenzae = experiment: Broth microdilution MIC; assay type: cell-based
SARS-CoV-2 = assay type: cell-based; conditions: Calu-3; MOI 0.05; 24 hpi
[4] = 2-3 isolates/organism, read-out: MIC

SMILES: Nc1ccc(O)c(C(=O)O)c1 [5-ASA, reference compound]
- mean reduction in IL-1β in distal colon tissue [1]: 33%
- mean reduction in IL-6 in distal colon tissue [1]: 86%

SMILES: CC(C)(O/N=C(\C(=O)N[C@@H]1C(=O)N2C(C(=O)[O-])=C(C[n+]3ccccc3)CS[C@H]12)c1csc(N)n1)C(=O)O [Ceftazidime]
- MIC (Staph. epidermidis): 16 to 32 µg/mL (≈ 29.3 to 58.5 µM)
- MIC (Klebsiella oxtoca; Klebsiella): 0.06 to 0.12 µg/mL (≈ 0.11 to 0.22 µM)
- MIC (Proteus vulgaris): 0.12 µg/mL (≈ 0.22 µM)
- MIC (Providencia stuartii): 0.12 to 64 µg/mL (≈ 0.22 to 117 µM)

SMILES: CCCCCCCCCC(=O)N[C@@H](Cc1c[nH]c2ccccc12)C(=O)N[C@H](CC(N)=O)C(=O)N[C@@H](CC(=O)O)C(=O)N[C@@H]1C(=O)NCC(=O)N[C@@H](CCCN)C(=O)N[C@@H](CC(=O)O)C(=O)N[C@H](C)C(=O)N[C@@H](CC(=O)O)C(=O)NCC(=O)N[C@H](CO)C(=O)N[C@@H]([C@H](C)CC(=O)O)C(=O)N[C@@H](CC(=O)c2ccccc2N)C(=O)O[C@@H]1C [Daptomycin, reference compound]
- antimicrobial activity against stationary phase cultures [2]: little antimicrobial activity

SMILES: CC(=O)NC[C@H]1CN(c2ccc(N3CCOCC3)c(F)c2)C(=O)O1 [Linezolid]
- MIC (Entero. faecalis; Entero. faecalis, 2-3 isolates/organism, read-out: MIC): 1 to 2 µg/mL (≈ 2.96 to 5.93 µM)
- MIC (Entero. faecium (VRE); Entero. faecium (VRE), 2-3 isolates/organism, read-out: MIC): 1 to 2 µg/mL (≈ 2.96 to 5.93 µM)
- MIC (Staph. aureus (MRSA); Staph. aureus (MRSA), 2-3 isolates/organism, read-out: MIC): 1 to 2 µg/mL (≈ 2.96 to 5.93 µM)
- MIC (Staph. epidermidis; Staph. epidermidis, 2-3 isolates/organism, read-out: MIC): 0.5 to 1 µg/mL (≈ 1.48 to 2.96 µM)
- MIC (Staph. saprophyticus; Staph. saprophyticus, 2-3 isolates/organism, read-out: MIC): 1 to 2 µg/mL (≈ 2.96 to 5.93 µM)
- MIC (Staph. spp. coagulase-; Staph. spp. coagulase-, 2-3 isolates/organism, read-out: MIC): 1 µg/mL (≈ 2.96 µM)
- MIC (Strept. agalactiae; Strept. agalactiae, 2-3 isolates/organism, read-out: MIC): 1 µg/mL (≈ 2.96 µM)
- MIC (Strept. pneumoniae; Strept. pneumoniae, 2-3 isolates/organism, read-out: MIC): 1 µg/mL (≈ 2.96 µM)
- MIC (Strept. pyogenes; Strept. pyogenes, 2-3 isolates/organism, read-out: MIC): 1 µg/mL (≈ 2.96 µM)
- MIC (Strept. viridians; Strept. viridians, 2-3 isolates/organism, read-out: MIC): 1 µg/mL (≈ 2.96 µM)
- MIC (Citrobacter fruendi; Citrobacter fruendi, 2-3 isolates/organism, read-out: MIC): > 16 µg/mL
- MIC (Citrobacter koseri; [4]): > 16 µg/mL
- MIC (Enterobacter cloacae; [4]): > 16 µg/mL
- MIC (Escherichia coli; [4]): > 16 µg/mL
- MIC (Klebsiella oxtoca; Klebsiella oxtoca, 2-3 isolates/organism, read-out: MIC): > 16 µg/mL
- MIC (Klebsiella pneumoniae; [4]): > 16 µg/mL
- MIC (Morganella morganii; [4]): > 16 µg/mL
- MIC (Proteus mirabilis; [4]): > 16 µg/mL
- MIC (Proteus vulgaris; [4]): > 16 µg/mL
- MIC (Providencia stuartii; [4]): > 16 µg/mL
- MIC (Acinetobacter spp.): > 16 µg/mL
- MIC (Pseud. aeruginosa; Pseud. aeruginosa, 2-3 isolates/organism, read-out: MIC): > 16 µg/mL
- MIC (Serratia marcescens; [4]): > 16 µg/mL
- MIC [3, 4]: > 16 µg/mL

SMILES: CN[C@H](CC(C)C)C(=O)N[C@H]1C(=O)N[C@@H](CC(N)=O)C(=O)N[C@H]2C(=O)N[C@H]3C(=O)N[C@H](C(=O)N[C@H](C(=O)O)c4cc(O)cc(O)c4-c4cc3ccc4O)[C@H](O)c3ccc(c(Cl)c3)Oc3cc2cc(c3O[C@@H]2O[C@H](CO)[C@@H](O)[C@H](O)[C@H]2O[C@H]2C[C@](C)(N)[C@H](O)[C@H](C)O2)Oc2ccc(cc2Cl)[C@H]1O [Vancomycin]
- MIC (Entero. faecalis): 1 µg/mL (≈ 0.69 µM)
- MIC (Entero. faecium (VRE); VRE): > 128 µg/mL
- MIC (Staph. aureus (MRSA); MRSA): 0.5 to 1 µg/mL (≈ 0.345 to 0.69 µM)
- MIC (Staph. epidermidis): 2 µg/mL (≈ 1.38 µM)
- MIC (Staph. saprophyticus): 1 to 2 µg/mL (≈ 0.69 to 1.38 µM)
- MIC (Staph. spp. coagulase-): 1 to 2 µg/mL (≈ 0.69 to 1.38 µM)
- MIC (Strept. agalactiae): 0.5 µg/mL (≈ 0.345 µM)
- MIC (Strept. pneumoniae): 0.5 µg/mL (≈ 0.345 µM)
- MIC (Strept. pyogenes): 0.5 µg/mL (≈ 0.345 µM)
- MIC (Strept. viridians): 0.5 to 1 µg/mL (≈ 0.345 to 0.69 µM)
- MIC (Citrobacter fruendi; Citrobacter): > 128 µg/mL
- MIC (Citrobacter koseri): > 128 µg/mL
- MIC (Enterobacter cloacae): > 128 µg/mL
- MIC (Escherichia coli): > 128 µg/mL
- MIC (Klebsiella oxtoca; Klebsiella): > 128 µg/mL
- MIC (Klebsiella pneumoniae): > 128 µg/mL
- MIC (Morganella morganii): > 128 µg/mL
- MIC (Proteus mirabilis): > 128 µg/mL
- MIC (Proteus vulgaris): > 128 µg/mL
- MIC (Providencia stuartii): > 128 µg/mL
- MIC (Pseud. aeruginosa): > 128 µg/mL
- MIC (Serratia marcescens): > 128 µg/mL
- MIC [3]: 32 to 128 µg/mL (≈ 22.1 to 88.3 µM)
- MIC (Haemophilus influenzae): 128 µg/mL (≈ 88.3 µM)

SMILES: NC(=O)c1nc(F)c[nH]c1=O [favipiravir, reference compound]
- inhibition of infectious titer, each drug alone (SARS-CoV-2): ≤ 80%

— patent US11771694B2, “Arylamide compounds for treatment and prevention of viral infections” (priority 2020, dated 2023)
